# Values quoted from earlier work as cited in patent publication US8263638B2, “Dosing regimens for ion channel modulating compounds” (priority 2004, dated 2012).
# Read-outs that look alike come from different tables or passages of the source.
# Test system: rabbit Purkinje fibers
# Settings: cited from earlier work
Compound,"increase of APD90 (10 nM, rabbit Purkinje fibers, BCL=1000 ms) [%]","increase of APD90 (10 μM, rabbit) [%]"
CN(CCOc1ccc(NS(C)(=O)=O)cc1)CCc1ccc(NS(C)(=O)=O)cc1 [dofetilide],83,
C=C[C@H]1C[N@@]2CC[C@H]1C[C@@H]2[C@@H](O)c1ccnc2ccc(OC)cc12 [quinidine],,93
